Literature values, collected in patent publication US20240041828A1, “Combination Therapeutics Comprising Nrf2 Agonists and Antivirals for Treating Viral Infections” (The Regents of the University of California, priority 2022, published 2024).
Counter-ions that a name gives are not always drawn. Like-named read-outs stand apart in the source and are kept apart here.

System: human mammalian cells
Settings: cited from earlier work

COC1=C(OC)C(=O)C(CCCCCCCCCC[P+](c2ccccc2)(c2ccccc2)c2ccccc2)=C(C)C1=O.CS(=O)(=O)[O-] [Mito-MES, 10-(4,5-dimethoxy-2-methyl-3,6-dioxo-1,4-cyclohexadienyl) decyl triphenylphosphonium methanesulfonate]
concentration shown to be physiologically relevant, efficacious and non-cytotoxic (human mammalian cells): 10-1000 nM

COC(=O)/C=C/C(=O)OC [DMF, Dimethyl fumarate]
concentration shown to be physiologically relevant, efficacious and non-cytotoxic: 0.1-100 μM
